pKi: −log10 of the molar value.
Key:
MOPC315 IgA Fab fragment = target: T1, MOPC315 IgA Fab fragment (Mus musculus, UniProt P01729+P01822+P01844+P01878); experiment: Affinity labeling of Fab (incorporation of cleavable affinity labels); type: binding; conditions: for % Fab labeled (without DNP-glycine) / label incorporated: Fab 10 μM; for % Fab labeled (without DNP-glycine): 1.5 equivalents aldehyde plus NaCNBH3, pH 7.0, 37° C., 20 hours, or 1.3 equivalents α-bromoketone, pH 9.0, 37° C., 16 hours; for % Fab labeled (with DNP-glycine): as without, in the presence of 10 mM competitive inhibitor DNP-glycine; for label incorporated: 1.5 or 1.3 equivalents of label, 37° C.; for non-specific labeling: in the presence of 10 mM DNP-glycine
T1 construct: Fab fragment, generated by treating the reduced and alkylated IgA with papain; made in house
T1 sequence (P01822+P01878 fused): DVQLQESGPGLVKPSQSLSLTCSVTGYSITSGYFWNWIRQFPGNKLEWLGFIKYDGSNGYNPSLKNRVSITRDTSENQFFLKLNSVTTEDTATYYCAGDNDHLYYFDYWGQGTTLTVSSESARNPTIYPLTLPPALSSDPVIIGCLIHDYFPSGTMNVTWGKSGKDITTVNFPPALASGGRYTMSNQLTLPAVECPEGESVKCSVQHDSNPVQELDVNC
T1 sequence (P01729+P01844 fused): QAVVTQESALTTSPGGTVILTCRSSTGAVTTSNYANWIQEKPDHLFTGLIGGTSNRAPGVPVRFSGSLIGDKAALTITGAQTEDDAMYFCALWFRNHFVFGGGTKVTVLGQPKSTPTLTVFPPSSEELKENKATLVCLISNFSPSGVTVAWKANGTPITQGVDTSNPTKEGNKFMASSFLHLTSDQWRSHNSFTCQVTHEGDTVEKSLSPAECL
Procedure: The strategy for introducing a thiol into the binding site of MOPC315 is outlined in FIG. 3. These steps were carried out with the Fab fragment, generated by treating the reduced and alkylated IgA with papain followed by affinity chromatography on DNP-coupled Sepharose 4B (Goetzl (1970) Biochemistry 9:1267). The Fab fragment (at 10 μM) was treated with either 1.5 equivalents of aldehydes 1 or 2 for one hour followed by 7.5 equivalents of NaCNBH3, in 0.2M sodium phosphate; pH 7.0, at 37° C. for 20 hours, or with 1.3 equivalents of α-bromoketones 3, 4, or 5 in 0.1M sodium bicarbonate, pH 9.0; at 37° C. for 16 hours. In both cases, the labeled Fab was purified by chromatography on Sephadex G-50 in 0.1M sodium phosphate, pH 7.3, and, after lyophilization, subsequent affinity chromatography on DNP-coupled Sepharose 4B (Goetzl, supra.) to remove unlabeled or non-specifically labeled Fab. The extent of derivatization was quantitated spectrophotometrically (for labels 1 and 2, λmax =360 nm, , ε=12,800 M^-1 cm^-1) and additionally, for labels 1 and 2, by incorporation of tritium from NaCNB^3 H3 (using 12 mCi/millimole NaCNB^3 H3). […] In both cases, less than 10% non-specific labeling occurred in the presence of 10 mM of the competitive inhibitor DNP-glycine.

[1] = target: T2, MOPC315 IgA Fab fragment, thiolated Fab labeled with 2 (Fab-SH, thiol tethered at residue 52H of the heavy chain) (Mus musculus, UniProt P01729+P01822); experiment: Ester cleavage (thiolysis) assay, fluorometric release of coumarin; type: biochemical
T2 construct: Fab fragment, generated by treating the reduced and alkylated IgA with papain; made in house
T2 sequence (P01822 19-137): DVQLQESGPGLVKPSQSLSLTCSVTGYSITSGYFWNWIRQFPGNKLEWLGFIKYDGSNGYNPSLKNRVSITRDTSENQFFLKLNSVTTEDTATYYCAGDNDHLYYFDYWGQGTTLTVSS
T2 sequence (P01729 20-129): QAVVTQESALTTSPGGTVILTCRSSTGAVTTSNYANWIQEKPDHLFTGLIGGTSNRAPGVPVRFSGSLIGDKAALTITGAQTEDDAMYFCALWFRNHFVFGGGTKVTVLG
T2 sequence (P01878 1-100 partner limits assumed): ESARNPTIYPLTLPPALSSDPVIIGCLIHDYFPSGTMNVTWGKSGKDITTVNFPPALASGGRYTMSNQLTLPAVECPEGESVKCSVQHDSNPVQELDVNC
T2 sequence (P01844 whole entry partner, the tested form may be a part): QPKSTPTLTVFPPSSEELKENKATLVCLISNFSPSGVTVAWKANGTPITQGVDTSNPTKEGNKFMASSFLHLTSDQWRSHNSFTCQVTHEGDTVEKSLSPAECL
Procedure: (§1) Cleavage of DNP coumarin esters 14 and 15 by the thiol-containing antibodies was assayed in the presence and absence of 0.1 μM NaCl, 50 mM sodium phosphate, pH 7.0, with 24 μM dithiothreitol at 10° C. The release of free coumarin was quantitated fluorometrically, exciting at 355 nm and measuring emission at 455 nm. The S-thiopyridyl Fab was first dialyzed against assay buffer, 30 min. prior to the assays, an aliquot of the thiopyridyl Fab (0.15 mg in 0.19 ml) was reduced with 3.8 mM dithiothreitol at 20° C. For each assay, reduced, thiolated Fab (15 μg in 18.8 μl) was diluted with assay buffer (2.95 ml) so that the net concentrations of thiolated Fab and of dithiothreitol were 0.1 μM and 24 μM, respectively. After equilibrating, the substrate was added (30 μl of a stock solution in acetonitrile) and the solution mixed for 10 sec. before monitoring fluorescence change. Antibody rates were corrected by subtracting the rate of cleavage in the absence of Fab.
(§2) The reaction kinetics are consistent with the formation of a Michaelis complex (FIG. 6). […] Neither the uncleaved affinity-labeled antibody nor the iodoacetamide-alkylated antibody accelerated the rate of the thiolysis reaction above the background rate. The stoichiometry of product release corresponded to 1.0 coumarin to 1.0 Fab-SH. […]

[2] = target: IgA MOPC315, underivatized; experiment: Association of DNP ligands with the underivatized antibody; type: binding; conditions: underivatized MOPC 315
Procedure: The following studies were carried out on the IgA MOPC315, which binds substituted 2,4-dinitrophenyl (DNP) ligands with association constants ranging from 5×10^4 to 10^6 M^-1 (Haselkorn et al. (1974) Biochemistry 13:2210). Although a three-dimensional structure is not available, the antibody combining site has been characterized by spectroscopic methods (UV, fluorometry, NMR), chemical modification, and amino acid sequencing of the variable region. Moreover, earlier affinity-labeling studies with reagents of varying structures (Givol and Wilcheck (1977) Meth. Enzy. 46:479; Givol et al. (1971) Biochemistry 10:3461; and Strausbauch et al. (1971) Biochemistry 10:4342) defined a number of reactive amino acid side chains in the vicinity of the combining site.
(§3) Fluorescence quenching experiments were carried out at 10° C. using 492 nm for excitation and measuring emission at 521 nm. The fluorescein-Fab adduct was diluted wi.:h assay buffer (50 mM NaCl. 50 mM sodium phosphate, pH 7.0) to 0.10 μM. Aliquots of 2,4-DNP-glycinewere added and, after mixing, the fluorescence observed. The association constant of DNP-glycine to the fluorescein-Fab adduct was determined to be 3.0×10^5 M^-1, almost identical to the KA of DNP-glycine to underivatized MOPC 315, 2.0×10^5 M^-1.

[3] = target: T3, MOPC315 fluorescein-Fab adduct (S-thiopyridyl Fab labeled with 2, derivatized with N-fluoresceinthioureido-2-mercaptoethylamine) (Mus musculus, UniProt P01729+P01822); experiment: Fluorescence quenching binding assay; conditions: 0.10 μM adduct, 50 mM NaCl, 50 mM sodium phosphate, pH 7.0, 10° C.; read-out: association constant (converted)
T3 construct: Fab fragment, generated by treating the reduced and alkylated IgA with papain; made in house
T3 sequence (P01822 19-137): as the sequence (P01822 19-137) above
T3 sequence (P01729 20-129): as the sequence (P01729 20-129) above
T3 sequence (P01878 1-100 partner limits assumed): as the sequence (P01878 1-100 partner limits assumed) above
T3 sequence (P01844 whole entry partner, the tested form may be a part): as the sequence (P01844 whole entry partner, the tested form may be a part) above
Procedure: FIG. 7 illustrates the results of a fluorescence quenching binding assay for DNP-glycine with fluorescein-Fab adduct (.quadrature.) versus control with fluorescein plus underivatized Fab ( ). Fluorescence quenching experiments were carried at 10° C. using 492 nm for excitation and measuring emission at 521 nm. The fluorescein-Fab adduct was diluted with assay buffer (above) to 0.10 μM. Aliquots of 2,4-DNP-glycine were added and, after mixing, the fluorescence observed. Free N-fluoresceinthioureido-2-mercapthoethylamine and underivatized Fab, each at 0.10 μM, were treated in a similar experiment.
as §3

[4] = target: T4, MOPC315 IgA Fab fragment, thiolated Fab labeled with bromoketone 4 (thiol tethered at tyrosine 34L) (Mus musculus, UniProt P01729+P01822); experiment: Ester cleavage assay; type: biochemical
T4 construct: Fab fragment, generated by treating the reduced and alkylated IgA with papain; made in house
T4 sequence (P01822 19-137): as the sequence (P01822 19-137) above
T4 sequence (P01729 20-129): as the sequence (P01729 20-129) above
T4 sequence (P01878 1-100 partner limits assumed): as the sequence (P01878 1-100 partner limits assumed) above
T4 sequence (P01844 whole entry partner, the tested form may be a part): as the sequence (P01844 whole entry partner, the tested form may be a part) above
Procedure: as §1, §2

SMILES | % Fab labeled (without DNP-glycine) (MOPC315 IgA Fab fragment) [%] | % Fab labeled (with DNP-glycine) (MOPC315 IgA Fab fragment) [%] | other results
O=CCCSSCCNc1ccc([N+](=O)[O-])cc1[N+](=O)[O-] [compound 1, (N-2,4-Dinitrophenyl)-2-aminoethyl 3-oxopropyl disulfide] | 22 | 5 | 
O=C(CBr)CCCCSc1ccc([N+](=O)[O-])cc1[N+](=O)[O-] [compound 5, 1-Bromo-2=oxo-6-(S-DNP)-mercaptohexane] | 15 | 0 | 
O=C(CCNc1ccc([N+](=O)[O-])cc1[N+](=O)[O-])Oc1ccc2ccc(=O)oc2c1 [ester 14, (N-DNP)-3-Aminopropanoic acid 7-hydroxycoumarin ester] |  |  | acceleration of cleavage, factor over the cleavage reaction in equimolar dithiothreitol ([1]; pH 7.0, 10° C.): 6×10^4
O=C(CBr)CCSc1ccc([N+](=O)[O-])cc1[N+](=O)[O-] [compound 3, 1-Bromo-2-oxo-4-(S-DNP)-mercaptobutane] | 0 | 0 | 
O=C(O)CNc1ccc([N+](=O)[O-])cc1[N+](=O)[O-] [DNP-glycine] |  |  | pKi [1]: 5.10; KA [2]: 200000 M⁻¹; Kd [3]: 3.33 µM
O=CCCCSSCCNc1ccc([N+](=O)[O-])cc1[N+](=O)[O-] [compound 2] | 95 | 10 | label incorporated (MOPC315 IgA Fab fragment): over 90%; non-specific labeling (MOPC315 IgA Fab fragment): less than 10%
CC(=O)Oc1ccc([N+](=O)[O-])cc1[N+](=O)[O-] [DNP-acetate] |  |  | hydrolysis of ester by thiolated Fab [4]: did not hydrolyze
O=C(CBr)CCCSc1ccc([N+](=O)[O-])cc1[N+](=O)[O-] [compound 4, 1-Bromo-2-oxo-5-(S-DNP)-mercaptopentane] | 85 | 0 | label incorporated (MOPC315 IgA Fab fragment): over 90%; non-specific labeling (MOPC315 IgA Fab fragment): less than 10%

From patent publication US5162218A, “Conjugated polypeptides and methods for their preparation” (The Regents of the University of California, priority 1991, dated 1992)
